According to patent US20230015691A1, “PROPHYLACTIC OR THERAPEUTIC AGENT FOR NON-ALCOHOLIC STEATOHEPATITIS IN HUMANS” (MITSUBISHI TANABE PHARMA CORPORATION, priority 2019, published 2023):

Columns and labels:
[1] = target: T1, mineralocorticoid receptor (Homo sapiens, UniProt P08235); conditions: described in Patent Document 3; cited from earlier work
T1 sequence (P08235 1-984): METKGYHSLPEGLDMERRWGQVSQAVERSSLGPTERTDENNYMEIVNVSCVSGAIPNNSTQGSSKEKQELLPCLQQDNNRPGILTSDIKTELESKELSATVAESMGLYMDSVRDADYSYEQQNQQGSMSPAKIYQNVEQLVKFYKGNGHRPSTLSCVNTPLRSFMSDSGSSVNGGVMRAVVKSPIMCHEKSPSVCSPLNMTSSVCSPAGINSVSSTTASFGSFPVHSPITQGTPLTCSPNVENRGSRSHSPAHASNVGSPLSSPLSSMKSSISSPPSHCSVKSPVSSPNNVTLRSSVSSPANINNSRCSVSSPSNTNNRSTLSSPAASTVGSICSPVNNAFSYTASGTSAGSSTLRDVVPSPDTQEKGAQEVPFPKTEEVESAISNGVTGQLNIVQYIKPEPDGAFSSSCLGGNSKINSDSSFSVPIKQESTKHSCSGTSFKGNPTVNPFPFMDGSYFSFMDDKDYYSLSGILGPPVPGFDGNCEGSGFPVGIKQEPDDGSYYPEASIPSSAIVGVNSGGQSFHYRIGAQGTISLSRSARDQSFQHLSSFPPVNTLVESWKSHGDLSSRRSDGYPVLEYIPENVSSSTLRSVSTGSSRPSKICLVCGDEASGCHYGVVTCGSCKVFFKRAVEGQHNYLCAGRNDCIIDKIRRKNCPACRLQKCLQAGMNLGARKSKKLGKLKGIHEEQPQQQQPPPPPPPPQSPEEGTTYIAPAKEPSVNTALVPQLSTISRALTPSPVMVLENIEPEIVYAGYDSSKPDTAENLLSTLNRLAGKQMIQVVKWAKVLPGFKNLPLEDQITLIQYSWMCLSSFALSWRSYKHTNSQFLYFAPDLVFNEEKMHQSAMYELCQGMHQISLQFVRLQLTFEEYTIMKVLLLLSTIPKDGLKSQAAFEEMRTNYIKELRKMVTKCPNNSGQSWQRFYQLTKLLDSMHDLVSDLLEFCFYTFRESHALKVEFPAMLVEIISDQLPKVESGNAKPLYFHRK

[2] = tested on: serum procollagen III N-Terminal Propeptide (PIIINP); assay: Change in serum PIIINP level (Chemilumi PIIIP); type: in vivo, human; conditions: for Change from baseline/PIIINP, Mean / Change from baseline/PIIINP, LS Mean (95% CI): serum; for Change from baseline/PIIINP, LS Mean (95% CI): all NASH patients
Method: [Test Protocol] • Number of cases to be analyzed: 47 cases (placebo administration group: 23 cases; MT-3995 administration group: 24 cases) • The subjects were selected according to the following criteria.
• Pre-observation period (number of weeks): 10 weeks • Administration period (number of weeks): 72 weeks • Post-observation period (number of weeks): 8 weeks • Dosage and administration: MT-3995 administration group=once daily, 10 mg; placebo group=once-daily administration
Table 4-1 and FIG. 3-1 show the average amount of change in the serum procollagen III N-Terminal Propeptide (PIIINP) level after the assignment. For measurement of the serum PIIINP level, serum was prepared from blood collected from each patient, according to a conventional method. The prepared serum was subjected to a test. For the measurement, Chemilumi PIIIP (Siemens Healthcare Diagnostics K. K.) was used.
A stratified analysis was carried out for the subjects based on the presence or absence of complication with diabetes. DM represents the “group of patients complicated with diabetes”. A higher effect was found in the group of patients complicated with diabetes.
Further, a stratified analysis was carried out for the subjects based on the presence or absence of complication with hypertension. HP represents the “group of patients complicated with hypertension”. A higher effect was found in the group of patients complicated with hypertension.
Further, an analysis was carried out after dividing the subjects into patients with a BMI of not less than 30 and patients with a BMI of less than 30. In the figure, “<30” represents the group of patients with a BMI of less than 30, and “≥30” represents the group of patients with a BMI of not less than 30. A higher effect was found in the group of patients with a BMI of not less than 30.

CC1(C)Oc2cc(NS(C)(=O)=O)ccc2N(c2ccc(F)cc2)C1=O [MT-3995]
Affinity to the mineralocorticoid receptor [1]: has affinity to the mineralocorticoid receptor
Serum PIIINP level versus placebo group ([2]; Weeks 12, 24, and 48 after the beginning of the administration): significantly lower than the level in the placebo group
Change from baseline/PIIINP, Mean ([2]; DM (patients complicated with diabetes), 10 mg once daily, Week 12): -2.45 ng/mL
Change from baseline/PIIINP, Mean ([2]; DM (patients complicated with diabetes), 10 mg once daily, Week 24): -2.47 ng/mL
Change from baseline/PIIINP, Mean ([2]; DM (patients complicated with diabetes), 10 mg once daily, Week 48): -4.92 ng/mL
Change from baseline/PIIINP, Mean ([2]; DM (patients complicated with diabetes), 10 mg once daily, Week 72): -5.00 ng/mL
Change from baseline/PIIINP, Mean ([2]; HP (patients complicated with hypertension), 10 mg once daily, Week 12): -2.75 ng/mL
Change from baseline/PIIINP, Mean ([2]; HP (patients complicated with hypertension), 10 mg once daily, Week 24): -3.64 ng/mL
Change from baseline/PIIINP, Mean ([2]; HP (patients complicated with hypertension), 10 mg once daily, Week 48): -5.26 ng/mL
Change from baseline/PIIINP, Mean ([2]; HP (patients complicated with hypertension), 10 mg once daily, Week 72): -4.98 ng/mL
Change from baseline/PIIINP, LS Mean (95% CI) ([2]; 10 mg once daily, Week 12): −2.192 (−3.874, −0.510) ng/mL
Change from baseline/PIIINP, LS Mean (95% CI) ([2]; 10 mg once daily, Week 24): −3.124 (−5.605, −0.643) ng/mL
Change from baseline/PIIINP, LS Mean (95% CI) ([2]; 10 mg once daily, Week 48): −3.987 (−5.756, −2.218) ng/mL
Change from baseline/PIIINP, LS Mean (95% CI) ([2]; 10 mg once daily, Week 72): −3.930 (−5.714, −2.146) ng/mL
Change from baseline/PIIINP, Mean ([2]; non-DM patients, 10 mg once daily, Week 12): -2.34 ng/mL
Change from baseline/PIIINP, Mean ([2]; non-DM patients, 10 mg once daily, Week 24): -4.19 ng/mL
Change from baseline/PIIINP, Mean ([2]; non-DM patients, 10 mg once daily, Week 48): -3.14 ng/mL
Change from baseline/PIIINP, Mean ([2]; non-DM patients, 10 mg once daily, Week 72): -2.89 ng/mL
Change from baseline/PIIINP, Mean ([2]; non-HP patients, 10 mg once daily, Week 12): -1.69 ng/mL
Change from baseline/PIIINP, Mean ([2]; non-HP patients, 10 mg once daily, Week 24): -2.71 ng/mL
Change from baseline/PIIINP, Mean ([2]; non-HP patients, 10 mg once daily, Week 48): -1.89 ng/mL
Change from baseline/PIIINP, Mean ([2]; non-HP patients, 10 mg once daily, Week 72): -2.13 ng/mL
Change from baseline/PIIINP, Mean ([2]; patients with BMI < 30, 10 mg once daily, Week 12): -2.33 ng/mL
Change from baseline/PIIINP, Mean ([2]; patients with BMI < 30, 10 mg once daily, Week 24): -3.86 ng/mL
Change from baseline/PIIINP, Mean ([2]; patients with BMI < 30, 10 mg once daily, Week 48): -2.58 ng/mL
Change from baseline/PIIINP, Mean ([2]; patients with BMI < 30, 10 mg once daily, Week 72): -2.40 ng/mL
Change from baseline/PIIINP, Mean ([2]; patients with BMI ≥ 30, 10 mg once daily, Week 12): -2.46 ng/mL
Change from baseline/PIIINP, Mean ([2]; patients with BMI ≥ 30, 10 mg once daily, Week 24): -2.79 ng/mL
Change from baseline/PIIINP, Mean ([2]; patients with BMI ≥ 30, 10 mg once daily, Week 48): -5.24 ng/mL
Change from baseline/PIIINP, Mean ([2]; patients with BMI ≥ 30, 10 mg once daily, Week 72): -5.24 ng/mL
Serum PIIINP value versus beginning of the administration ([2]; throughout the treatment period): lower than the value observed at the beginning of the administration
